Laboratory results from article PMC3368905, “Inhibition of Ion Channels and Heart Beat in Drosophila by Selective COX-2 Inhibitor SC-791” (PLoS ONE, 2012).

Target: T1, Shab channel (IKS, delayed rectifier, Drosophila Kv2) (Drosophila melanogaster, UniProt P17970)
T1 construct: native channel in larval body-wall muscles (fiber 12)
T1 sequence (P17970 1-1015): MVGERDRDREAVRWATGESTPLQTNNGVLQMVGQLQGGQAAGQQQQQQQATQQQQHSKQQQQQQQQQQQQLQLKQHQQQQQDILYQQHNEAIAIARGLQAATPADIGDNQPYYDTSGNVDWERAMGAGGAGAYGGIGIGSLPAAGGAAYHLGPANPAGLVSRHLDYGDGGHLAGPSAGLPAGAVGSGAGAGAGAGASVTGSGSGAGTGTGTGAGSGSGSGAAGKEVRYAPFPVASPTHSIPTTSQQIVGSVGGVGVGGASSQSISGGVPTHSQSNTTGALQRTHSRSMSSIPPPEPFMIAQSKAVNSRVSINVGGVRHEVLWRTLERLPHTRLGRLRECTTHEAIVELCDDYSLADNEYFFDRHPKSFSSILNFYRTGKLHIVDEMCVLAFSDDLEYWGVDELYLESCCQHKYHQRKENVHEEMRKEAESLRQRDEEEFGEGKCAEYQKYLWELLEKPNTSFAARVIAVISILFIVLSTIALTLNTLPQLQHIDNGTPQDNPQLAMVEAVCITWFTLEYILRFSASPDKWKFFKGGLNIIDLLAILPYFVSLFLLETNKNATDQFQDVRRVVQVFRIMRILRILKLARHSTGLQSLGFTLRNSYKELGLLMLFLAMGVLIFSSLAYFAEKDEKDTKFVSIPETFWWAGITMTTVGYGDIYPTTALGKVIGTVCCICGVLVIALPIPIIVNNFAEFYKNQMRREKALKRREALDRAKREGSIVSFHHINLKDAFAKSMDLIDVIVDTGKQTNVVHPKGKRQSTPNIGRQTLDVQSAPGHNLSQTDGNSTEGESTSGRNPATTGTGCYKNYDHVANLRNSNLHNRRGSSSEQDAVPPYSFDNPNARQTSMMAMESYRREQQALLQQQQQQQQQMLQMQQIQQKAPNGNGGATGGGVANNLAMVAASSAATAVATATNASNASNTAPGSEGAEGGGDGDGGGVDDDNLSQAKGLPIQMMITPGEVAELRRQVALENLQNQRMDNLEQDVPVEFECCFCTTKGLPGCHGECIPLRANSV
Assay: two-microelectrode voltage clamp of native IKS in larval muscle
Assay type: cell-based

Compound `NS(=O)(=O)c1ccc(-c2c(-c3ccccc3)noc2C(F)F)cc1` [SC-791] has an IC50 of 21 µM.
